# Results: patent publication EP4722219A1 (Gan & Lee Pharmaceuticals Co., Ltd., priority 2023, dated 2024)
# Positions count from the first letter of the chain named.
# Experiments:
# Format in all cases: cell-based
# AR protein [1] = target: T1, AR protein (Homo sapiens, UniProt P10275, T878A); assay: AR protein degradation in LNCaP cells (Western blot); details: 8 hours; for percent AR protein degradation at a fixed concentration at 0.01 µM: 10 nM; for percent AR protein degradation at a fixed concentration at 0.1 µM: 100 nM
# T1 construct: host or cells: LNCaP FGC
# T1 sequence (P10275 1-920 T878A): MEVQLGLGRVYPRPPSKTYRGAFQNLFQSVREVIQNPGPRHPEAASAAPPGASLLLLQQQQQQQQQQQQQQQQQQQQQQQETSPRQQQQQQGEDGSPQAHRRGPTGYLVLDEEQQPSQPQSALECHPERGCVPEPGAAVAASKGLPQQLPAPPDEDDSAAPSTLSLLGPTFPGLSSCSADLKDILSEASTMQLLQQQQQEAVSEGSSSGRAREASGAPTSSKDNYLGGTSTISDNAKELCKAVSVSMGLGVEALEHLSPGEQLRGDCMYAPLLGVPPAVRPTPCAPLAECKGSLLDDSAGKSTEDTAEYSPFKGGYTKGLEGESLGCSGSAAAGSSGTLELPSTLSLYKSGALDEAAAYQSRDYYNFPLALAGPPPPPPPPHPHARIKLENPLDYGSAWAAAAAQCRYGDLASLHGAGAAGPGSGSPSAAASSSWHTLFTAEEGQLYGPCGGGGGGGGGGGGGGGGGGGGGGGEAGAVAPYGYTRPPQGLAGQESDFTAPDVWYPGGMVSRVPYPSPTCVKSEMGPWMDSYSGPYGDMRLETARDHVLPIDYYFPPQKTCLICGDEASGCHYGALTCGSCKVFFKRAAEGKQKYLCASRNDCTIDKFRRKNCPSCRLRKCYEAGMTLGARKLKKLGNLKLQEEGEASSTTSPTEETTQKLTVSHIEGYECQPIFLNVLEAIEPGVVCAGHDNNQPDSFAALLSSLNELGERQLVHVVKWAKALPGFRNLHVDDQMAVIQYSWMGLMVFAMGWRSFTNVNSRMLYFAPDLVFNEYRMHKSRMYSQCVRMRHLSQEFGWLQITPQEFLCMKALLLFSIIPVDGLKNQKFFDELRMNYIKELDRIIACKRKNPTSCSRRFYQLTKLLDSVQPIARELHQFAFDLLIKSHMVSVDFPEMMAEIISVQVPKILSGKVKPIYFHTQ
# Description: At the same time, the corresponding solvent control was set and cultured for 8 hours. After 8 hours of culture, the culture medium was removed, the cells were washed with PBS, and RIPA lysis buffer containing 1% Protease Inhibitor Cocktail was added. After lysis and centrifugation, the total protein extract was obtained, and the protein concentration in the extract was detected by BCA method. Protein electrophoresis was performed using SDS-PAGE, and then the protein was transferred to a PVDF (Millipore Sigma catalog number PSRP010R5) membrane at a constant voltage of 100V for 60 minutes. The PVDF membrane was placed in a 5% milk powder 1 ×TBST solution and blocked at room temperature for 1 hour. […] The primary antibody solution was discarded and the PVDF membrane was washed with 1×TBST for 5 minutes each time, for three times. […] The secondary antibody solution was discarded and the PVDF membrane was washed with 1 ×TBST for 5 minutes each time, for three times. A dual-color infrared laser imaging system (Licor catalog number Odyssey CLX) was used for Western membrane imaging. The Image Studio software was used to analyze the grayscale of the bands. GAPDH protein bands were also detected for each sample as the reference. The AR protein degradation rate of the compound and the positive control sample was calculated based on the grayscale of the protein bands.
# VCaP cells = assay: Inhibition of VCaP cell proliferation (WST-8); details: Homo sapiens, 168 hours
# Description: On the first day of the experiment, VCaP cells were seeded at a density of 15,000 cells/well in a 96-well plate using DMEM medium containing 10% fetal bovine serum, with 100µL of cell suspension per well, and cultured overnight in a cell incubator at 37°C and 5% CO2. On the second day, 100µL of the compound of the present invention and the positive control ARV-110 (source: Anaiji) prepared in culture medium at different concentrations were added to each well. The final concentration of the compound was 9 concentration points of 5-fold serial dilution starting from 10 µM. […] On the ninth day, the 96-well cell culture plate was removed and 1/10 volume of WST-8 (Beytime, C0040) reagent was added to each well. The absorbance at 450nm was measured using a microplate reader (TECAN, F50).
# LNCaP cells = assay: Inhibition of LNCaP cell proliferation (WST-8); details: Homo sapiens, LNCaP FGC cells, 96 hours
# Description: The inhibitory activity of compounds disclosed in the present invention on LNCaP cell proliferation
# The cells were cultured overnight in a 37°C, 5% CO2 cell incubator. […] The final concentration of the compound was 9 concentration points of 5-fold serial dilution starting from 10 µM. […] The cells were cultured in a cell culture incubator at 37°C and 5% CO2 for 96 hours. On the sixth day, the 96-well cell culture plate was removed, and 1/10 volume of WST-8 (Beytime, C0040) reagent was added to each well. The absorbance at 450 nm was detected using a microplate reader (TECAN, F50).
# AR protein [2] = target: T2, AR protein (Homo sapiens, UniProt P10275); assay: AR protein degradation in VCaP cells (Western blot); details: 8h
# T2 construct: host or cells: VCaP
# T2 sequence (P10275 1-920): T1 sequence (P10275 1-920 T878A) with A878T
# Description: The degradation activity of the compounds disclosed in the present invention on AR protein in VCaP cells (cell source: ATCC)
# The AR-positive human prostate cancer cells VCaP cultured in DMEM (GiBco catalog number 11995-065) containing 10% FBS (Hyclone catalog number SH30406.05) was inoculated in a six-well microplate (Thermo catalog number 140675) at a concentration of 3×10^5 cells/ well. After being cultured overnight in a carbon dioxide incubator (ESCO), the prepared compound of the present invention and the positive control sample ARV-766 (Annaiji) solution of different concentrations were added at a volume of 1 µL/well to make the final concentrations of the compound and the positive control sample reach 5nM and 0.5nM, respectively. At the same time, the corresponding solvent control was set and cultured for 8h. After 8h of culture, the culture medium was removed, and the cells were washed with PBS. RIPA lysis buffer containing 1% Protease Inhibitor Cocktail was added. After lysis and centrifugation, a total protein extract was obtained, and the protein concentration in the extract was detected by BCA method. Protein electrophoresis was performed using SDS-PAGE, and then the protein was transferred to a PVDF (Millipore Sigma catalog number PSRP010R5) membrane at a constant voltage of 100V for 60min. The PVDF membrane was placed in a 5% milk powder 1×TBST solution and blocked at room temperature for 1h. The primary antibody solution (Anti-Androgen receptor, Cell Signaling Technology catalog number: 5153S; 1:2000 dilution) was prepared and was incubated at 4°C overnight. The primary antibody solution was discarded and the PVDF membrane was washed with 1×TBST for 5 minutes each time, for three times. The secondary antibody solution (Thermo catalog number SA5-35571; 1:7500 dilution) was prepared and was incubated at room temperature for 1 hour. The secondary antibody solution was discarded and the PVDF membrane was washed with 1×TBST for 5 minutes each time, for three times. A dual-color infrared laser imaging system (Licor catalog number Odyssey CLX) was used for Western membrane imaging. Image Studio software was used to analyze the grayscale of the bands. GAPDH protein bands were also detected for each sample as the reference. The AR protein degradation rate of the compound and the positive control sample was calculated based on the grayscale of the protein bands.
# Table 7 Degradation rate of AR protein in VCaP cells by the compounds disclosed in the present invention
SMILES,percent AR protein degradation at a fixed concentration at 0.01 µM (AR protein [1]) [%],percent AR protein degradation at a fixed concentration at 0.1 µM (AR protein [1]) [%],IC50 (VCaP cells) [µM],IC50 (LNCaP cells) [µM],AR protein degradation rate at fixed concentration (%) at 0.0005 µM (AR protein [2]; 0.5 nM) [%],AR protein degradation rate at fixed concentration (%) at 0.005 µM (AR protein [2]; 5 nM) [%]
"COc1cc2c(cc1C(=O)N[C@H]1CCC(=O)NC1=O)C1(CCN(CC3CCN(C(=O)c4ccc(N5CCC6(CC5)C[C@H](C)N(c5ccc(C#N)c(Cl)c5)C6)cc4)CC3)CC1)CO2 [A-P-82, 1'-((1-(4-((S)-2-(3-chloro-4-cyanophenyl)-3-methyl-2,8-diazaspiro[4.5]decan-8-yl)benzoyl)piperidin-4-yl)methyl)-N-((S)-2,6-dioxohesperidin-3-yl)-6-methoxy-2H-spiro[benzofuran-3,4'-piperidin]-5-carboxamide]",55,83,0.049,15.7,–,–
COc1cc(O[C@H]2C(C)(C)[C@H](NC(=O)c3ccc(N4CCC(CN5CCC6(CC5)COc5c6ccc6c5n(C)c(=O)n6C5CCC(=O)NC5=O)CC4)cc3)C2(C)C)ccc1C#N (some centres unmarked) [A-P-28],64,32,–,20.7,80,80
"C[C@H]1CC2(CCN(c3ccc(C(=O)N4CCC(CN5CCC6(CC5)COc5cc(NC7CCC(=O)NC7=O)ccc56)CC4)cc3)CC2)CN1c1ccc(C#N)c(Cl)c1 (some centres unmarked) [A-P-87, 2-chloro-4-((3 S)-8-(4-(4-((6-((2,6-dioxopiperidin-3-yl)amino)-2H-spiro[benzofuran-3,4'-piperidin]-1'-yl)methyl)piperidin-1-carbonyl)phenyl)-3-methyl-2,8-diazaspiro[4.5]decan-2-yl)benzonitrile]",–,–,0.0014,0.14,–,–
"C[C@H]1CC2(CCN(c3ccc(C(=O)N4CCC(CN5CCC6(CC5)COc5ccc(NC7CCC(=O)NC7=O)cc56)CC4)cc3)CC2)CN1c1ccc(C#N)c(Cl)c1 (some centres unmarked) [A-P-98, 2-chloro-4-((3 S)-8-(4-(4-((5-((2,6-dioxopiperidin-3-yl)amino)-2H-spiro[benzofuran-3,4'-piperidin]-1'-yl)methyl)piperidin-1-carbonyl)phenyl)-3-methyl-2,8-diazaspiro[4.5]decan-2-yl)benzonitrile]",–,–,0.006,0.43,–,–
COc1cc2c(cc1C(=O)N[C@H]1CCC(=O)NC1=O)OC[C@H]1CN(CC3CCN(c4ccc(N5CCC6(CC5)C[C@H](C)N(c5ccc(C#N)c(Cl)c5)C6)cc4)CC3)CCN21 [A-P-75],–,–,0.042,0.35,–,–
COc1cc2c(cc1C(=O)N[C@H]1CCC(=O)NC1=O)OC[C@H]1CN(CC3CCN(C(=O)c4ccc(N5CCC6(CC5)C[C@H](C)N(c5ccc(C#N)c(Cl)c5)C6)cc4)CC3)CCN21 [A-P-76],–,–,0.078,2.84,–,–
"C[C@H]1CC2(CCN(c3ccc(N4CCC(CN5CCN6c7cc(F)c(C(=O)N[C@H]8CCC(=O)NC8=O)cc7OC[C@H]6C5)CC4)cc3)CC2)CN1c1ccc(C#N)c(Cl)c1 [A-P-59, (R)-3-((1-(4-((S)-2-(3-chloro-4-cyanophenyl)-3-methyl-2,8-diazaspiro[4.5]decan-8-yl)phenyl)piperidin-4-yl)methyl)-N-((S)-2,6-dioxopiperidin-3-yl)-9-fluoro-1,2,3,4,4a,5-hexahydrobenzo[b]pyrazi no[1,2-d][1,4]oxazine-8-carboxamide]",–,–,0.16,0.15,–,–
"C[C@H]1CC2(CCN(c3ccc(C(=O)N4CCC(CN5CCC6(CC5)Cc5ccc(NC7CCC(=O)NC7=O)cc5O6)CC4)cc3)CC2)CN1c1ccc(C#N)c(Cl)c1 (stereo partly drawn) [A-P-94, 2-chloro-4-((3S)-8-(4-(4-((6-((2,6-dioxopiperidin-3-yl)amino)-3H-spiro[benzofuran-2,4'-piperidin]-1'-yl)methyl)piperidin-1-carbonyl)phenyl)-3-methyl-2,8-diazaspiro[4.5]decan-2-yl)benzonitrile]",–,–,0.0015,0.39,–,–
C[C@H]1CC2(CCN(c3ccc(C(=O)N4CCC(CN5CCN6c7cc(F)c(C(=O)N[C@H]8CCC(=O)NC8=O)cc7OC[C@H]6C5)CC4)cc3)CC2)CN1c1ccc(C#N)c(Cl)c1 [A-P-60],–,–,0.94,0.69,–,–
